Here are results for twelve compounds from ChEMBL document CHEMBL1268913, “Carbocycles related to oseltamivir as influenza virus group-1-specific neuraminidase inhibitors. Binding to N1 enzymes in the context of virus-like particles” (J Med Chem, 2010).

In general, Ki refers to a measure of affinity in units of concentration, obtained from inhibition or displacement. Lower therefore signals a stronger hold on the target. As a reminder, the IC50 is the point on the concentration scale where inhibition reaches its midpoint. The EC50 is the concentration giving half of the maximal effect. Lower therefore signals a more potent agent.

Neuraminidase, sequence (B4URF0 whole entry): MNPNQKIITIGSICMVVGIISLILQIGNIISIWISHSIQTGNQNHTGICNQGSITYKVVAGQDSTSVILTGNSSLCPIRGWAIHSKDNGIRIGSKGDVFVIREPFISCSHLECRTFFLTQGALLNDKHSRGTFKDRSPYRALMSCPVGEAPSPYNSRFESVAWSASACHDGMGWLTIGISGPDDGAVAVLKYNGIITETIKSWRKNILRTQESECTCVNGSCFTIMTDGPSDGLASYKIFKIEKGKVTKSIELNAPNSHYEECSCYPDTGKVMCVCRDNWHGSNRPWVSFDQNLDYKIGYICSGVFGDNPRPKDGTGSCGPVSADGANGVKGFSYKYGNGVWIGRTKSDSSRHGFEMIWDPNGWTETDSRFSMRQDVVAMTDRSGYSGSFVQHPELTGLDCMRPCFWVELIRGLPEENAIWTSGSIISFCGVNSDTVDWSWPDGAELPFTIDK

One assay has as its target Neuraminidase (Influenza A virus, UniProt B4URF0). The assay can be described thus: Inhibition of influenza A nuraminidase N1.
With `CCC(CC)O[C@@H]1CC(C(=O)O)=C[C@H](n2cc(CCc3ccccc3)nn2)[C@H]1NC(C)=O`, the affinity, expressed as Ki, was 1.2 µM. On the same count and under the same terms, then `CCC(CC)O[C@@H]1CC(C(=O)O)=C[C@H](n2cc(C(O)CC)nn2)[C@H]1NC(C)=O` (some centres not stated), with 0.072 µM. As for `CCC(CC)O[C@@H]1CC(C(=O)O)=C[C@H](NC(=N)N)[C@H]1NC(C)=O`, the Ki came to 0.00046 µM. The same measure, in the same setting: then `CCC(CC)O[C@@H]1CC(C(=O)O)=C[C@H](n2cc(CCCO)nn2)[C@H]1NC(C)=O`, with 0.46 µM. Still for that read-out and setting: then `CCC(CC)O[C@@H]1CC(C(=O)O)=C[C@H](n2cc(C(C)(C)O)nn2)[C@H]1NC(C)=O`, with 0.13 µM.

The compound `CCC(CC)O[C@@H]1CC(C(=O)O)=C[C@H](n2cc(C3(O)CCCCC3)nn2)[C@H]1NC(C)=O` displayed a concentration for half-maximal inhibition (IC50) of 4.8 µM. Still for that read-out and setting: then `CCC(CC)O[C@@H]1CC(C(=O)O)=C[C@H](n2cc(C3(O)CCCC3)nn2)[C@H]1NC(C)=O`, with 11 µM. `CCC(CC)O[C@@H]1CC(C(=O)O)=C[C@H](n2cc([C@]3(O)CC[C@H]4[C@@H]5CCc6cc(O)ccc6[C@H]5CC[C@@]43C)nn2)[C@H]1NC(C)=O` returned an inhibition constant (Ki) of 5.8 µM. That is a single-digit micromolar value. The same measure, in the same setting: then `CCC(CC)O[C@@H]1CC(C(=O)O)C=C(n2cc(CCc3ccccc3)nn2)[C@H]1NC(C)=O` (mixture of isomers), with 60 µM; and `CCC(CC)O[C@@H]1CC(C(=O)O)C=C(n2cc(C(C)(C)O)nn2)[C@H]1NC(C)=O` (mixture of isomers), with 19 µM. Same read-out and setting: then `CC(=O)N[C@H]1[C@H]([C@H](O)[C@H](O)CO)OC(C(=O)O)=C[C@@H]1O` [NEU5AC2EN], with 5.9 µM.

Another assay has as its system unidentified influenza virus. Briefly: Antiviral activity against avian influenza virus H5N1. Format: functional, organism-based.
`CCC(O)c1cn([C@H]2C=C(C(=O)O)O[C@@H]([C@H](O)[C@H](O)CO)[C@@H]2NC(C)=O)nn1` (some centres not stated) had an EC50 of 6.4 µM.
